Data: paper PMC8621172, “Manipulating Estrogenic/Anti-Estrogenic Activity of Triphenylethylenes towards Development of Novel Anti-Neoplastic SERMs” (International Journal of Molecular Sciences, 2021)

System: prostate cell lines
Assay: NCI five-dose assay, prostate subpanel
Format: cell-based
Settings: Homo sapiens
Experimental: All compounds were subjected to the NCI in vitro disease-oriented human cells screening panel assay. The human tumor cell lines of the cancer-screening panel are grown in RPMI 1640 medium containing 5% fetal bovine serum and 2 mM L-glutamine. For a typical screening experiment, cells are inoculated into 96-well microtiter plates in 100 μL at plating densities ranging from 5000 to 40,000 cells/well depending on the doubling time of individual cell lines. After cell inoculation, the microtiter plates are incubated at 37 °C, 5% CO2, 95% air, and 100% relative humidity for 24 h prior to the addition of experimental drugs. After 24 h, two plates of each cell line are fixed in situ with TCA to represent a measurement of the cell population for each cell line at the time of drug addition. Experimental drugs are solubilized in dimethyl sulfoxide at 400-fold the desired final maximum test concentration and stored frozen prior to use. At the time of drug addition, an aliquot of frozen concentrate is thawed and diluted to twice the desired final maximum test concentration with complete medium containing 50 μg/mL gentamicin. […] Bound stain is subsequently solubilized with a 10 mM trizma base, and the absorbance is read on an automated plate reader at a wavelength of 515 nm. […] Three response parameters (GI50, TGI, and LC50) were calculated for each cell line.

Compound: CCN(CC)CCOc1ccc(C(=C(C)c2ccc(F)c(OC)c2)c2ccc(Cl)cc2)cc1 [Compound 28, E/Z-(2-{4-[1-(4-Chlorophenyl)-2-(4-fluoro-3-methoxyphenyl)-propenyl]-phenoxy}-ethyl)-diethyl-amine]
- GI50: 2310 nM
